These results are taken from article PMC4188250 (Biochemistry, 2014).

The target of test [1] is T1, Cytochrome P450 4A11 (Homo sapiens, UniProt Q02928).
T1 sequence (Q02928 5-519): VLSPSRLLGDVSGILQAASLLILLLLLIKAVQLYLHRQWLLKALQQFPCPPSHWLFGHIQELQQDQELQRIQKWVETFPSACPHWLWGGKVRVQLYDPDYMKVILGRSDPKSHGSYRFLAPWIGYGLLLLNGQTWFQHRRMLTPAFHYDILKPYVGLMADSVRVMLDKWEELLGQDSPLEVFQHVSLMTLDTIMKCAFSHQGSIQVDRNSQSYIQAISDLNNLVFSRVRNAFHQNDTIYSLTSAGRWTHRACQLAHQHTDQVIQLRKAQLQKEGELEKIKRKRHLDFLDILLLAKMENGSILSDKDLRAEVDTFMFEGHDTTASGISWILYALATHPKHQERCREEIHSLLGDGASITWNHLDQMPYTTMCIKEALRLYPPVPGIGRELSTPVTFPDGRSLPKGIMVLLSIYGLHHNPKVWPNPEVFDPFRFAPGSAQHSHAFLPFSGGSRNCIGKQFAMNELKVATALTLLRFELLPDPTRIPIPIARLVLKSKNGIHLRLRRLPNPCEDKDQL
Put plainly: UV-visible spectral binding titration.

Test [2] deals with T1, Cytochrome P450 4A11. Put plainly: UV-visible spectral binding titration. The source holds these as a separate data set.

Read-outs that look alike come from different tables or passages of the source.

What is called Kd is the free concentration of one partner at which half of the binding sites on the other are occupied at equilibrium, for simple one-to-one binding. High values mean a looser complex, low ones a tighter complex. At Cytochrome P450 4A11 [1], `CCCCCCCCCCCC(=O)O` [lauric acid, dodecanoic acid] registered a Kd of 6.7 ± 0.3 µM.
`O=C(O)CCCCCCCCCCCO` [12-OH lauric acid] yielded a Kd at Cytochrome P450 4A11 [2] of 5.1 ± 2.1 µM.
